# Source: US10471046B2, “Method for treating, preventing, or reducing the risk of skin infection” (Melinta Subsidiary Corp., priority 2014, dated 2019)
# Read-outs that look alike come from different tables or passages of the source.
# Columns and labels:
# [1] = Human exposure (AUC 0-24); conditions: in vivo; human @ 300 mg dose
# B. fragilis [2] = experiment: Agar dilution MIC (CLSI reference method); assay type: cell-based; conditions: Bacteroides fragilis, ATCC25285; B. fragilis ATCC 25285
# G. vaginalis [3] = experiment: Agar dilution MIC (CLSI reference method); assay type: cell-based; conditions: for MIC: Gardnerella vaginalis
# Staphylococcus aureus = experiment: MIC against ribosome-based resistance phenotypes; assay type: cell-based; conditions: read-out: Minimum Inhibitory Concentration (MIC)
# Source text: (§1) Furthermore, the antibiotic compounds can be assayed for anti-proliferative or anti-infective properties on a cellular level. For example, where the target organism is a microorganism, the activity of compounds of interest can be assayed by growing the microorganisms of interest in media either containing or lacking the compound. Growth inhibition can be indicative that the molecule could be acting as a protein synthesis inhibitor. […] For this purpose, a panel of bacterial strains can be assembled to include a variety of target pathogenic species, some containing resistance mechanisms that have been characterized. Use of such a panel of organisms permits the determination of structure-activity relationships not only in regards to potency and spectrum, but also with a view to obviating resistance mechanisms.
# Enterococcus faecalis = experiment: MIC against ribosome-based resistance phenotypes; assay type: cell-based; conditions: read-out: Minimum Inhibitory Concentration (MIC)
# Source text: as §1
# Listeria monocytogenes = conditions: cited from earlier work
# B. thetaiotaomicron [4] = experiment: microbe, parasite or virus in culture; assay type: cell-based; conditions: Bacteroides thetaiotaomicron, ATCC29741; B. thetaiotaomicron ATCC 29741; read-out: MIC, agar dilution
# [5] = Radezolid levels in granuloma pouch and plasma; assay type: in vivo; conditions: FIGS. 3-4
# [6] = Approximate solubility in solvents by aliquot addition; assay type: physicochemical; conditions: ambient temperature
# Protocol: Solubilities of the radezolid free base and radezolid HCl salt in various solvents were estimated and are shown in Tables 10 and 11, respectively, below. A weighed sample was treated with aliquots of test solvent at ambient temperature. Complete dissolution of the test material was determined by visual inspection. Solubility was estimated based on the total solvent used to provide complete dissolution. The actual solubility may be greater than the approximate solubility calculated because of the use of solvent aliquots that were too large or due to a slow rate of dissolution. […] If complete dissolution was achieved as a result of only one aliquot addition, the solubility is expressed as “greater than.” The approximate solubilities were rounded to the nearest whole number.
# G. vaginalis [7] = experiment: Broth microdilution MIC; assay type: cell-based; conditions: for MIC: Gardnerella vaginalis
# S. aureus = experiment: Broth microdilution MIC; assay type: cell-based; conditions: Staphylococcus aureus, ATCC29213; S. aureus ATCC 29213
# P. granulosum = experiment: Agar dilution MIC (CLSI reference method); assay type: cell-based
# [8] = tested on: intracellular S. aureus (including linezolid-resistant); conditions: cited from earlier work
# B. thetaiotaomicron [9] = experiment: microbe, parasite or virus in culture; assay type: cell-based; conditions: Bacteroides thetaiotaomicron, ATCC29741; B. thetaiotaomicron ATCC 29741; read-out: MIC, broth microdilution
# [10] = tested on: mammalian cells (e.g., defense cells, macrophages, lung cells, and non-phagocytic cells); conditions: cited from earlier work
# [11] = Long-term rat safety study; assay type: in vivo
# Source text: There was 100% survival in all dose groups.
# all organisms = experiment: Agar dilution MIC, range over the isolates tested; assay type: cell-based; conditions: read-out: agar dilution MICs for all organisms
# B. fragilis [12] = experiment: Broth microdilution MIC; assay type: cell-based; conditions: Bacteroides fragilis, ATCC25285; B. fragilis ATCC 25285
# Enterococcus faecium = experiment: MIC against ribosome-based resistance phenotypes; assay type: cell-based; conditions: Enterococcus faecium A6349; VanA + Lin-R (G2576U); read-out: Minimum Inhibitory Concentration (MIC)
# Source text: as §1, with “mechanisms. The assays can be performed in microtiter trays according to conventional methodologies as published by The National Committee for Clinical Laboratory Standards (NCCLS) guidelines (NCCLS. M7-A5-Methods for Dilution Antimicrobial Susceptibility Tests for Bacteria That Grow Aerobically; Approved Standard-Fifth Edition. NCCLS Document M100-S12/M7 (ISBN 1-56238-394-9)).” for “mechanisms.”
# [13] = assay type: physicochemical; conditions: radezolid salt forms in HPLC grade water, ambient temperature; listed as Free base
# F. magna = experiment: Broth microdilution MIC; assay type: cell-based; conditions: Finegoldia magna, ATCC15794; F. magna ATCC 15794
# [14] = ATCC14018, G. vaginalis ATCC 14018
# [15] = ATCC49145, G. vaginalis ATCC 49145
smiles,measurement,setting,value
"CC(=O)NC[C@H]1CN(c2ccc(-c3ccc(CNCc4cnn[nH]4)cc3)c(F)c2)C(=O)O1 [Radezolid, (5S)—N-[3-(2-Fluoro-4′-{[(1H-[1,2,3]triazol-4-ylmethyl)-amino]-methyl}-biphenyl-4-yl)-2-oxo-oxazolidin-5-ylmethyl]-acetamide]",AUC(0-t),[1],3330 ng·h/mL
same,MIC,B. fragilis [2],4 µg/mL
same,"agar dilution MIC, fold more potent than linezolid",G. vaginalis [3]; G. vaginalis,8 fold
same,MIC,G. vaginalis [3]; [14],0.06 µg/mL
same,MIC,G. vaginalis [3]; [15],0.06 µg/mL
same,MIC,"Staphylococcus aureus; ATCC29213, Staphylococcus aureus ATCC29213, phenotype QC",1 µg/mL
same,MIC,"Staphylococcus aureus; Staphylococcus aureus 01A1095, Mac-R",1 µg/mL
same,MIC,"Staphylococcus aureus; Staphylococcus aureus A7820, Lin-R (G2576U) + Mac-R (ErmC)",16 µg/mL
same,MIC,"Enterococcus faecalis; ATCC29212, Enterococcus faecalis ATCC29212, phenotype QC",0.25 µg/mL
same,MIC,"Enterococcus faecalis; ATCC29212, Enterococcus faecalis ATCC29212-P5, Lin-R (G2576U)",1 µg/mL
same,MIC,"Enterococcus faecalis; Enterococcus faecalis 1069, VanB",0.25 µg/mL
same,intracellular killing,Listeria monocytogenes,kills
same,MIC,B. thetaiotaomicron [4],> 8 µg/mL
same,levels in granuloma pouch versus plasma over time,[5],remain high in granuloma pouch even as they decline in the plasma
same,solubility,"[6]; 2,2,2-trifluoroethanol (TFE), organic solvent or mixture, thermodynamic from solid, 2,2,2-trifluoroethanol (TFE)",≥ 54000 µg/mL
same,solubility,"[6]; HFIPA/methanol (1:3 by volume), organic solvent or mixture, thermodynamic from solid, HFIPA/Methanol (1:3 by volume)",< 1000 µg/mL
same,solubility,"[6]; acetone, organic solvent or mixture, thermodynamic from solid",< 1000 µg/mL
same,solubility,"[6]; acetonitrile, organic solvent or mixture, thermodynamic from solid",< 1000 µg/mL
same,solubility,"[6]; dichloromethane, organic solvent or mixture, thermodynamic from solid",< 1000 µg/mL
same,solubility,"[6]; ethyl acetate, organic solvent or mixture, thermodynamic from solid",< 1000 µg/mL
same,solubility,"[6]; ethyl ether, organic solvent or mixture, thermodynamic from solid",< 1000 µg/mL
same,solubility,"[6]; hexafluoroisopropanol (HFIPA), organic solvent or mixture, thermodynamic from solid",≥ 245000 µg/mL
same,solubility,"[6]; hexamethylphosphoramide, organic solvent or mixture, thermodynamic from solid, Hexamethyl-phosphoramide",< 26000 µg/mL
same,solubility,"[6]; methanol, organic solvent or mixture, thermodynamic from solid",< 1000 µg/mL
same,solubility,"[6]; tetrahydrofuran (THF), organic solvent or mixture, thermodynamic from solid",< 1000 µg/mL
same,solubility,"[6]; water, thermodynamic from solid",< 1000 µg/mL
same,"broth microdilution, fold more active than linezolid",G. vaginalis [7]; G. vaginalis 49145,8 fold
same,MIC,G. vaginalis [7]; [14],0.125 µg/mL
same,MIC,G. vaginalis [7]; [15],0.06 µg/mL
same,MIC,S. aureus,2 µg/mL
same,"agar dilution MIC, fold more potent than linezolid",P. granulosum; P. granulosum,8 fold
same,MIC,P. granulosum; P. granulosum ATCC 25746,0.25 µg/mL
same,intracellular killing,[8],kills
same,MIC,B. thetaiotaomicron [9],8 µg/mL
same,fraction accumulating in the cytosol of cells,[10]; cytosol,Approximately 60%
same,fraction accumulating in the lysosome,[10]; lysosome,approximately 40%
same,"accumulation in mammalian cells, extent greater than linezolid",[10]; relative to linezolid,17 fold
same,survival,"[11]; both, rat, in vivo",100%
same,Safety margin (Rat NOAEL AUC/Human efficacious AUC),[11]; calculated from rat and human AUC 0-24,30.8x
same,AUC(0-t),"[11]; male, rat, in vivo, 200 mg/kg",102000 ng·h/mL
same,"changes in hematology, coagulation, clinical chemistry, or urinalysis","[11]; rat, in vivo",No test article-related changes
same,safety in long-term rat study,"[11]; rat, in vivo",good safety
same,MIC,all organisms,0.06 to 1 µg/mL
same,MIC,B. fragilis [12],2 µg/mL
same,MIC,Enterococcus faecium,0.5 µg/mL
same,solubility,[13],<20 µg/mL
same,MIC,F. magna,0.125 µg/mL
